Tests used:
Type in all cases: biochemical
human GALK = biological target: T1, human GALK (Homo sapiens, UniProt P51570); experiment: standard pyruvate kinase/lactate dehydrogenase-coupled GALK assay; details: dose response, FIG. 7; values somewhat lower than in the luminescence assay; no numbers given
T1 construct: made in house; host or cells: Escherichia coli HMS174 (DE3), plasmid pET15b
Description: As the percentage of substrate conversion can have significant impact on the accuracy of IC50 determination, the preferred approach is to determine reaction rates at initial velocity (i.e., zero substrate conversion). […] In this assay, the amount of galactose present in the reaction is kept in excess, whereas ATP consumed by the galactokinase reaction is recycled by the pyruvate kinase reaction.
As the percentage of substrate conversion can have significant impact on the accuracy of IC50 determination, the preferred approach is to determine reaction rates at initial velocity (i.e., zero substrate conversion). […] The dose response of the selected compounds was analyzed using the standard pyruvate kinase/lactate dehydrogenase-Coupled assay. In this assay, the amount of galactose present in the reaction was kept in excess, whereas ATP consumed by the galactokinase reaction was recycled by the pyruvate kinase reaction.

[1] = biological target: T2, purified recombinant E. coli CDP-ME kinase (Escherichia coli, UniProt P62615); experiment: CDP-ME kinase assay (luminescence-based); details: CDP-ME as substrate; increasing compound concentration; FIG. 10B
T2 construct: made in house; host or cells: E. coli HMS174
T2 sequence (P62615 1-283): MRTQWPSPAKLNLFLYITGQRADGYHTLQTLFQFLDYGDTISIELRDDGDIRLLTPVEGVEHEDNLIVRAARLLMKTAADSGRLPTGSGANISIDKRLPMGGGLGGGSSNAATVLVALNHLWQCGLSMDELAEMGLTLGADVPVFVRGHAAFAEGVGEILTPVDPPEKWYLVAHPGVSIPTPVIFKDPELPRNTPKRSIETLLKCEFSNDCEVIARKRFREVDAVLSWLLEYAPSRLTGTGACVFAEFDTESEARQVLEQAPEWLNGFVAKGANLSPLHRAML
Protocol: Detailed Protocol for CDP-ME Kinase Assay
Protocol: Mix I was prepared using 1 microL for MVK. If dilutions are to be made, dilute in 1× buffer to 1 microL. Mix II was prepared just before use, as CMP-ME and ATP may deteriorate. Final CMP-ME concentration was chosen at 50 microM for the sake of economics and kept on ice until it was dispensed.
At least 4 replicates per condition were used in the experiment. Mix I was dispensed on the plate with a pipette. Mix II was then added and the plate covered with foil. The plates was incubated at 37° C. for 15 minutes and Kinase-Glo® (Promega, Madison Wis.) was added, the plate covered with foil, and incubated at RT for 15 minutes. Measurements were taken as described for the GALK protocol, the data were plotted and the enzyme concentration with reading within linear range just above baseline was selected.
Protocol to test for inhibition: Compound stored at −80° C. was slowly thawed. Stock was at 10 mM concentration.
These were incubated for 1 hour with MVK. Each dilution was then be pipetted into wells (40 microL each). 20 microL of Mix II was added to each well and covered with foil. The plates were incubated at 37° C., for 15 minutes, then Kinase-Glo® (Promega, Madison, Wis.) was added, plates were covered with foil, and incubated at room temperature (RT) for 15 minutes. The data was plotted and the IC50 was calculated.

[2] = biological target: T3, human galactokinase (GALK) (Homo sapiens, UniProt P51570); experiment: two-step luminescence-based (Kinase-Glo) high-throughput GALK assay; details: ATP-γ-S from 0 to 13.3 μM, ATP constant at 5 μM; FIG. 3C
T3 construct: made in house; host or cells: Escherichia coli HMS174 (DE3), plasmid pET15b
T3 sequence (P51570 whole entry): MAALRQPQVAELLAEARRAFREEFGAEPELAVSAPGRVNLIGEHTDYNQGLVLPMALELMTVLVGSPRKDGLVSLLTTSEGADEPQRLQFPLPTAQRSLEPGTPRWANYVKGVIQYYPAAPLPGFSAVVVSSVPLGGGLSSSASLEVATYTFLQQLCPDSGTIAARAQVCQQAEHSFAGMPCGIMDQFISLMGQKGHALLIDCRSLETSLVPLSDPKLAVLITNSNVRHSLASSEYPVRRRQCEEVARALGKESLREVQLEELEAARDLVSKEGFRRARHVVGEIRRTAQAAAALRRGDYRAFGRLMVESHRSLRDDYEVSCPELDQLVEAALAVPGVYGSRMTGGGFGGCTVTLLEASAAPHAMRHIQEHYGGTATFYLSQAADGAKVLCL
Protocol: Using the Kinase-Glo™ reagent (Promega, Madison, Wis.), a miniaturized, two-step HTS assay for GALK was developed. […] After 60 minutes at room temperature (22° C.), 30 μL of Kinase Glo™ (Promega) was added, and luminescence was measured within 30 min using an Envision Multilabel Plate Reader (Perkin Elmer). In the course of 12 days, nearly 50,000 compounds from various libraries of small molecules with diverse structural scaffolds were screened for their inhibitory properties of GALK activity in vitro. […] The reaction was then allowed to proceed at room temperature (22° C.) for 60 min. Then, 30 μL of Kinase-Glo™ was added to stop the reaction, and luminescence was measured 15 to 30 min later using the Envision Multilabel Plate Reader (PerkinElmer). 50,000 small molecules were screened, in duplicate, for inhibitory properties against purified GALK. […] In short, duplicate luminescence measurements were corrected for background measurements using the method described by Seiler et al. (Nucl. Acids Res 2007). […] After 60 min at room temperature (22° C.), 30 μL of Kinase-Glo™ was added, and luminescence was measured within 30 min using an Envision Multilabel Plate Reader (PerkinElmer, Waltham, Mass.). […] Then, 30 μl of Kinase-Glo™ was added to stop the reaction, and luminescence was measured 15 to 30 min later using the Envision Multilabel Plate Reader (PerkinElmer). […]

T1 sequence (P51570 whole entry): as above

Row | inhibition of GALK activity by ATP mimetic [2] | SMILES | IC50 values confirmed in coupled assay (human GALK) | inhibition of E. coli CDP-ME kinase [1]
1 | – | COC1=C(N)C(=O)c2nc(-c3nc(C(=O)O)c(C)c(-c4ccc(OC)c(OC)c4O)c3N)ccc2C1=O [compound 24, Streptonigrin] | confirmed | –
2 | – | CC(C)(C)C(=O)Nc1ccc2c(c1)C(=O)C(=O)c1ccccc1-2 [compound 1, Tyrosine Phosphatase CD45 inhibitor] | confirmed | –
3 | – | Oc1c(Cl)cc(Cl)c(Cl)c1Cc1c(O)c(Cl)cc(Cl)c1Cl [compound 9, Hexachlorophene] | confirmed | inhibits E. coli CDP-ME kinase
4 | acted as a GALK inhibitor | Nc1ncnc2c1ncn2[C@@H]1O[C@H](COP(=O)(O)OP(=O)(O)OP(O)(O)=S)[C@@H](O)[C@H]1O [ATP-γ-S, adenosine 5′-O-(3-thio-)triphosphate] | – | –
5 | – | CC1(c2ccccc2)CC(C)(C)N2C(=O)/C(=C3/SC(=O)NC3=O)c3cccc1c32 (stereo not drawn) [compound 3] | confirmed | –

Reference: patent US8357701B2, “Galactokinase inhibitors” (University of Miami, priority 2007, dated 2013)
